Source: PubChem BioAssay (NCI)
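1) Cells in 96-well plates. 2) Compound, 48 h, 5 concentrations. 3) Linear interpolation between surrounding doses. 4) Unreached endpoint = highest concentration. TGI is the concentration that stops growth completely.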

Tests used:
Assay in all cases: NCI-60 cell line screen, 48 h
DU-145 prostate = test system: DU-145 prostate
CAKI-1 renal = test system: CAKI-1 renal
BT-549 breast = test system: BT-549 breast
TK-10 renal = test system: TK-10 renal
MDA-MB-231 breast = test system: MDA-MB-231 breast
NCI-H522 lung = test system: NCI-H522 lung
NCI-H460 lung = test system: NCI-H460 lung
HOP-62 NSCLC = test system: HOP-62 NSCLC
HL-60(TB) leukemia = test system: HL-60(TB) leukemia
KM12 colon = test system: KM12 colon
T-47D breast = test system: T-47D breast
OVCAR-3 ovarian = test system: OVCAR-3 ovarian
ACHN renal = test system: ACHN renal
PC-3 prostate = test system: PC-3 prostate

## NC(=S)Nc1ccc(S(=O)(=O)Nc2ccc(S(N)(=O)=O)cc2)cc1
DU-145 prostate
  TGI: > 100 µM
CAKI-1 renal
  TGI: > 100 µM
BT-549 breast
  TGI: > 100 µM
TK-10 renal
  TGI: > 100 µM
MDA-MB-231 breast
  TGI: > 100 µM
NCI-H522 lung
  TGI: > 100 µM
NCI-H460 lung
  TGI: > 100 µM
HOP-62 NSCLC
  TGI: > 100 µM
HL-60(TB) leukemia
  TGI: > 100 µM
KM12 colon
  TGI: > 100 µM
T-47D breast
  TGI: > 100 µM
OVCAR-3 ovarian
  TGI: > 100 µM
ACHN renal
  TGI: > 100 µM
PC-3 prostate
  TGI: > 100 µM

## C=C1CC[C@H](O)C(C)(C)[C@@H]1CC/C(C)=C/CC/C=C(\C)CC/C=C(\C)CCC=C(C)C
DU-145 prostate
  TGI: > 100 µM
CAKI-1 renal
  TGI: > 100 µM
BT-549 breast
  TGI: > 100 µM
TK-10 renal
  TGI: > 100 µM
MDA-MB-231 breast
  TGI: > 100 µM
NCI-H522 lung
  TGI: > 100 µM
NCI-H460 lung
  TGI: > 100 µM
HOP-62 NSCLC
  TGI: > 100 µM
HL-60(TB) leukemia
  TGI: 69 µM
KM12 colon
  TGI: > 100 µM
T-47D breast
  TGI: 59.3 µM
OVCAR-3 ovarian
  TGI: > 100 µM
ACHN renal
  TGI: > 100 µM
PC-3 prostate
  TGI: > 100 µM

## COc1ccc(CCN2CCN(CCc3ccc(OC)cc3)CC2)cc1
DU-145 prostate
  TGI: > 100 µM
CAKI-1 renal
  TGI: > 100 µM
BT-549 breast
  TGI: > 100 µM
TK-10 renal
  TGI: > 100 µM
MDA-MB-231 breast
  TGI: > 100 µM
NCI-H522 lung
  TGI: > 100 µM
NCI-H460 lung
  TGI: > 100 µM
HOP-62 NSCLC
  TGI: > 100 µM
HL-60(TB) leukemia
  TGI: > 100 µM
KM12 colon
  TGI: > 100 µM
T-47D breast
  TGI: > 100 µM
OVCAR-3 ovarian
  TGI: > 100 µM
ACHN renal
  TGI: > 100 µM
PC-3 prostate
  TGI: > 100 µM

## COC(=O)CCc1cc(O)c2c(c1)C(C(=O)OC)C(c1ccc(O)c(O)c1)O2 (centres undefined)
DU-145 prostate
  TGI: > 83 µM
CAKI-1 renal
  TGI: > 100 µM
BT-549 breast
  TGI: > 100 µM
TK-10 renal
  TGI: > 100 µM
MDA-MB-231 breast
  TGI: > 100 µM
NCI-H522 lung
  TGI: > 100 µM
NCI-H460 lung
  TGI: > 62.8 µM
HOP-62 NSCLC
  TGI: > 100 µM
HL-60(TB) leukemia
  TGI: > 21.8 µM
KM12 colon
  TGI: > 46.5 µM
T-47D breast
  TGI: > 72.3 µM
OVCAR-3 ovarian
  TGI: > 67.1 µM
ACHN renal
  TGI: > 100 µM
PC-3 prostate
  TGI: > 100 µM

## Cc1cc(=O)n2nc(CN3CCCCC3)sc2n1
DU-145 prostate
  TGI: > 100 µM
CAKI-1 renal
  TGI: > 100 µM
BT-549 breast
  TGI: > 100 µM
TK-10 renal
  TGI: > 100 µM
MDA-MB-231 breast
  TGI: > 100 µM
NCI-H522 lung
  TGI: > 100 µM
NCI-H460 lung
  TGI: > 100 µM
HOP-62 NSCLC
  TGI: > 100 µM
HL-60(TB) leukemia
  TGI: > 100 µM
KM12 colon
  TGI: > 100 µM
T-47D breast
  TGI: > 100 µM
OVCAR-3 ovarian
  TGI: > 100 µM
ACHN renal
  TGI: > 100 µM
PC-3 prostate
  TGI: > 100 µM

## NC(CCC(=O)O)C(=O)N1CCN(c2nc(N3CCCC3)c3nc(Cl)c(NCc4ccccc4)nc3n2)CC1 (centres undefined)
DU-145 prostate
  TGI: 21.9 µM
CAKI-1 renal
  TGI: 39.6 µM
BT-549 breast
  TGI: 25.4 µM
TK-10 renal
  TGI: 31 µM
MDA-MB-231 breast
  TGI: 31.2 µM
NCI-H522 lung
  TGI: 34.5 µM
NCI-H460 lung
  TGI: 24.9 µM
HOP-62 NSCLC
  TGI: 28.4 µM
HL-60(TB) leukemia
  TGI: 24.4 µM
KM12 colon
  TGI: 40.3 µM
T-47D breast
  TGI: 21.3 µM
OVCAR-3 ovarian
  TGI: 22.9 µM
ACHN renal
  TGI: 28.8 µM
PC-3 prostate
  TGI: 26.9 µM

## O=C(O)Cc1cccc2c1OC(c1ccccc1)C(Cl)(C(=O)c1ccccc1)C2=O (centres undefined)
DU-145 prostate
  TGI: 65.3 µM
CAKI-1 renal
  TGI: 31.6 µM
BT-549 breast
  TGI: > 100 µM
TK-10 renal
  TGI: 37.2 µM
MDA-MB-231 breast
  TGI: 58.8 µM
NCI-H522 lung
  TGI: 29.6 µM
NCI-H460 lung
  TGI: 55.8 µM
HOP-62 NSCLC
  TGI: 43.6 µM
HL-60(TB) leukemia
  TGI: 28 µM
KM12 colon
  TGI: 50.6 µM
T-47D breast
  TGI: 40.2 µM
OVCAR-3 ovarian
  TGI: 31.9 µM
ACHN renal
  TGI: 26.9 µM
PC-3 prostate
  TGI: 24.3 µM

## c1ccc(CSP234N5CCN2CCN3CCN4CC5)c(CSP234N5CCN2CCN3CCN4CC5)c1
DU-145 prostate
  TGI: > 100 µM
CAKI-1 renal
  TGI: > 100 µM
BT-549 breast
  TGI: > 100 µM
TK-10 renal
  TGI: > 100 µM
MDA-MB-231 breast
  TGI: > 100 µM
NCI-H522 lung
  TGI: > 100 µM
NCI-H460 lung
  TGI: > 100 µM
HOP-62 NSCLC
  TGI: > 100 µM
HL-60(TB) leukemia
  TGI: 77 µM
KM12 colon
  TGI: > 100 µM
T-47D breast
  TGI: > 100 µM
OVCAR-3 ovarian
  TGI: > 100 µM
ACHN renal
  TGI: > 100 µM
PC-3 prostate
  TGI: > 100 µM

## Cc1ccc2c(c1)C1(C)OC(C=CC1=O)O2 (centres undefined)
DU-145 prostate
  TGI: 8.45 µM
CAKI-1 renal
  TGI: 1.49 µM
BT-549 breast
  TGI: 1.57 µM
TK-10 renal
  TGI: 5.5 µM
MDA-MB-231 breast
  TGI: 0.745 µM
NCI-H522 lung
  TGI: 0.239 µM
NCI-H460 lung
  TGI: 6.03 µM
HOP-62 NSCLC
  TGI: 12.2 µM
HL-60(TB) leukemia
  TGI: 0.998 µM
KM12 colon
  TGI: 2.14 µM
T-47D breast
  TGI: 1.65 µM
OVCAR-3 ovarian
  TGI: 1.16 µM
ACHN renal
  TGI: 1.73 µM
PC-3 prostate
  TGI: 3.81 µM

## CC(C)(C)C1=CC(=C(c2ccc(-c3c4nc(c(-c5ccc(C(=C6C=C(C(C)(C)C)C(=O)C(C(C)(C)C)=C6)c6cc(C(C)(C)C)c(O)c(C(C)(C)C)c6)cc5)c5ccc([nH]5)c(-c5ccc(C(=C6C=C(C(C)(C)C)C(=O)C(C(C)(C)C)=C6)c6cc(C(C)(C)C)c(O)c(C(C)(C)C)c6)cc5)c5nc(c(-c6ccc(C(=C7C=C(C(C)(C)C)C(=O)C(C(C)(C)C)=C7)c7cc(C(C)(C)C)c(O)c(C(C)(C)C)c7)cc6)c6ccc3[nH]6)C=C5)C=C4)cc2)c2cc(C(C)(C)C)c(O)c(C(C)(C)C)c2)C=C(C(C)(C)C)C1=O
DU-145 prostate
  TGI: > 100 µM
CAKI-1 renal
  TGI: > 100 µM
BT-549 breast
  TGI: > 100 µM
TK-10 renal
  TGI: > 100 µM
MDA-MB-231 breast
  TGI: > 100 µM
NCI-H522 lung
  TGI: > 100 µM
NCI-H460 lung
  TGI: > 100 µM
HOP-62 NSCLC
  TGI: > 100 µM
HL-60(TB) leukemia
  TGI: > 100 µM
KM12 colon
  TGI: > 100 µM
T-47D breast
  TGI: > 100 µM
OVCAR-3 ovarian
  TGI: > 100 µM
ACHN renal
  TGI: > 100 µM
PC-3 prostate
  TGI: > 100 µM

## O=c1oc2cc(O)ccc2c(O)c1C(c1ccccc1F)c1c(O)c2ccc(O)cc2oc1=O
DU-145 prostate
  TGI: > 100 µM
CAKI-1 renal
  TGI: > 100 µM
BT-549 breast
  TGI: 48.4 µM
TK-10 renal
  TGI: > 100 µM
MDA-MB-231 breast
  TGI: > 100 µM
NCI-H522 lung
  TGI: > 100 µM
NCI-H460 lung
  TGI: > 100 µM
HOP-62 NSCLC
  TGI: > 100 µM
HL-60(TB) leukemia
  TGI: 43.7 µM
KM12 colon
  TGI: > 100 µM
T-47D breast
  TGI: > 100 µM
OVCAR-3 ovarian
  TGI: > 100 µM
ACHN renal
  TGI: > 100 µM
PC-3 prostate
  TGI: > 100 µM
